Experimental data taken from the supplement of paper PMC10307832.

Legend:
Experiment in all cases: relative viability (nuclei count vs DMSO), 5 days (fraction); higher = more cells survive
AT-7519 + Dasatinib = compound: O=C(NC1CCNCC1)c1n[nH]cc1NC(=O)c1c(Cl)cccc1Cl [AT-7519] + Cc1nc(Nc2ncc(C(=O)Nc3c(C)cccc3Cl)s2)cc(N2CCN(CCO)CC2)n1 [Dasatinib] (partner 0.075 µM)
Outline: (§1)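 Relative viability is defined as nuclei in treated wells over nuclei in vehicle wells. Duplicate plates were run and medians reported. Lung cancer cell lines in 1536-well plates were dosed by pin tool one day after seeding, with one drug or with a fixed anchor-drug dose plus five library-drug doses (not always all listed) in √10 steps, and nuclei were counted after 5 days.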

[1] = compound: C1=CC2=C(C=C(C(=C2N=C1)O)N=NC3=CC4=C(C=C3)C=C(C=C4)S(=O)(=O)O)S(=O)(=O)O + Nc1ncn([C@H]2C[C@H](O)[C@@H](CO)O2)c(=O)n1 [Decitabine] (partner 2 µM)
Outline: as §1

AT-7519 + Luminespib = compound: O=C(NC1CCNCC1)c1n[nH]cc1NC(=O)c1c(Cl)cccc1Cl [AT-7519] + CCNC(=O)c1noc(-c2cc(C(C)C)c(O)cc2O)c1-c1ccc(CN2CCOCC2)cc1 [Luminespib] (partner 0.01 µM)
Outline: as §1

[2] = compound: C1=CC2=C(C=C(C(=C2N=C1)O)N=NC3=CC4=C(C=C3)C=C(C=C4)S(=O)(=O)O)S(=O)(=O)O + CC(C)C[C@H](NC(=O)[C@H](Cc1ccccc1)NC(=O)c1cnccn1)B(O)O [Bortezomib] (partner 0.002 µM)
Outline: as §1

| Cell Line | relative viability (AT-7519 + Dasatinib; first compound 0.01 µM) | relative viability (AT-7519 + Dasatinib; first compound 0.03162 µM) | relative viability (AT-7519 + Dasatinib; first compound 0.3162 µM) | relative viability (AT-7519 + Dasatinib; first compound 1 µM) | relative viability ([1]; first compound 0.08 µM) | relative viability ([1]; first compound 0.253 µM) | relative viability ([1]; first compound 0.8 µM) | relative viability ([1]; first compound 2.53 µM) | relative viability ([1]; first compound 8 µM) | relative viability (AT-7519 + Luminespib; first compound 0.01 µM) | relative viability (AT-7519 + Luminespib; first compound 0.03162 µM) | relative viability (AT-7519 + Luminespib; first compound 0.3162 µM) | relative viability (AT-7519 + Luminespib; first compound 1 µM) | relative viability ([2]; first compound 0.08 µM) | relative viability ([2]; first compound 0.253 µM) | relative viability ([2]; first compound 0.8 µM) | relative viability ([2]; first compound 2.53 µM) | relative viability ([2]; first compound 8 µM) |
| --- | --- | --- | --- | --- | --- | --- | --- | --- | --- | --- | --- | --- | --- | --- | --- | --- | --- | --- |
| NCI-H1355 | 0.747 | 0.633 | 0.602 | 0.784 | 0.4 | 0.363 | 0.362 | 0.353 | 0.352 | 0.87 | 0.621 | 0.564 | 0.578 | 1.22 | 1.22 | 1.15 | 1.23 | 1.29 |
| NCI-H1437 | 0.444 | 0.424 | 0.377 | 0.486 | 0.603 | 0.567 | 0.655 | 0.586 | 0.566 | 1.17 | 1.2 | 1.09 | 0.745 | 0.578 | 0.509 | 0.483 | 0.414 | 0.4 |
| NCI-H1650 | 0.32 | 0.293 | 0.22 | 0.164 | 0.438 | 0.37 | 0.511 | 0.447 | 0.318 | 0.186 | 0.202 | 0.205 | 0.21 | 0.196 | 0.212 | 0.22 | 0.193 | 0.202 |
| NCI-H1651 | 0.396 | 0.304 | 0.406 | 0.292 | 0.79 | 0.548 | 0.659 | 0.658 | 0.535 | 0.882 | 0.675 | 0.614 | 0.607 | 0.942 | 0.903 | 0.894 | 0.963 | 0.755 |
| NCI-H1666 | 0.744 | 0.75 | 0.75 | 0.593 | 0.821 | 0.711 | 0.716 | 0.815 | 0.747 | 1.06 | 0.943 | 0.988 | 0.585 | 0.874 | 0.658 | 0.799 | 0.859 | 0.658 |
| NCI-H1734 | 0.445 | 0.421 | 0.391 | 0.31 | 0.493 | 0.439 | 0.461 | 0.488 | 0.503 | 0.2 | 0.174 | 0.164 | 0.0866 | 1.07 | 0.885 | 0.863 | 1.09 | 0.978 |
| NCI-H1755 | 0.465 | 0.404 | 0.465 | 0.409 | 0.771 | 0.679 | 0.714 | 0.737 | 0.698 | 0.59 | 0.38 | 0.345 | 0.416 | 1.08 | 0.962 | 0.934 | 0.95 | 0.958 |
| NCI-H1792 | – | – | 0.845 | 0.654 | 0.627 | 0.483 | 0.508 | 0.5 | 0.473 | – | 0.453 | 0.359 | 0.613 | 1.09 | 0.931 | 0.886 | 0.976 | 0.908 |
| NCI-H1915 | 0.215 | 0.316 | 0.334 | 0.274 | 0.25 | 0.25 | 0.268 | 0.263 | 0.274 | 0.687 | 0.798 | 0.729 | 0.62 | 1.02 | 0.957 | 0.92 | 0.892 | 0.935 |
